Molecular target: T1, GST-tagged ROR gamma ligand binding domain (LBD) (Homo sapiens, UniProt P51449)
T1 construct: purchased Invitrogen
T1 sequence (P51449 269-508 limits assumed): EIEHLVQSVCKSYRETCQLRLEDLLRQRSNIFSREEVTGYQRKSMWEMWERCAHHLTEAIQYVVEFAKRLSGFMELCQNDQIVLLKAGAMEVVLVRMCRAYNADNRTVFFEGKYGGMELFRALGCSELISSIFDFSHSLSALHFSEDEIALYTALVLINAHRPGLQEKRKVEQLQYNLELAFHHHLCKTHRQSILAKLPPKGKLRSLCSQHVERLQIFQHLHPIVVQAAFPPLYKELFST
Assay: TR-FRET assay for ROR gamma (LanthaScreen co-activator peptide recruitment)
Type: biochemical
Settings: for IC50: class symbols, from dose response curve; for inhibition at 1 µM: compound 1 μM; for inhibition at 1 µM / inhibition at 10 µM: TR-FRET ratio 520/495, percent of control; for inhibition at 10 µM: compound 10 μM
Procedure, shortened: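 Antagonist mode: 10 nM GST-RORγ LBD pre-incubated with compound 1 h at 22 °C in 25 mM HEPES pH 7.4, 100 mM NaCl, 5 mM DTT, 0.01% BSA, 4% DMSO final. Then 300 nM fluorescein-D22 co-activator peptide plus 10 nM Tb-anti-GST added, 1 h at room temperature. IC50 by nonlinear regression of the 520/495 TR-FRET ratio as percent of no-compound control.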

| SMILES | IC50 [nM] | inhibition at 1 µM [%] | inhibition at 10 µM [%] |
| --- | --- | --- | --- |
| CCS(=O)(=O)c1ccc(CC(=O)Nc2ccc(OC3(c4ccc(Cl)c(F)c4)CCCCC3)cc2)cc1 [Example 124, N-{4-[1-(4-Chloro-3-fluorophenyl)-cyclohexyloxy]-phenyl}-2-(4-ethanesulfonyl-phenyl)-acetamide] | < 50 | 82.2 | 84.8 |
| CCn1c(C(C)(C)Oc2c(F)cc(F)cc2F)nc2cc(NC(=O)Cc3ccc(S(=O)(=O)CC)cc3)ccc21 [Example 90, 2-(4-Ethanesulfonyl-phenyl)-N-{1-ethyl-2-[1-methyl-1-(2,4,6-trifluoro-phenoxy)-ethyl]-1H-benzoimidazol-5-yl}-acetamide] | < 50 | 87.3 | 88.8 |
| CCC(CC)(Oc1ccc(NC(=O)Cc2ccc(S(=O)(=O)CC)cc2)cc1)c1ccc(Cl)c(F)c1 [Example 12, N-{4-[1-(4-Chloro-3-fluoro-phenyl)-1-ethyl-propoxy]-phenyl}-2-(4-ethanesulfonyl-phenyl)-acetamide] | 50 to 100 | 73.9 | 85.4 |
| CCS(=O)(=O)c1ccc(CC(=O)Nc2ccc(OC(C)(C)c3ncc(Cl)cc3Cl)cc2)cc1 [Example 11, N-{4-[1-(3,5-Dichloro-pyridin-2-yl)-1-methyl-ethoxy]-phenyl}-2-(4-ethanesulfonyl-phenyl)-acetamide] | < 50 | 84.3 | 89 |
| CCS(=O)(=O)c1ccc(CC(=O)Nc2ccc(C#CC(C)(C)Oc3ccc(Cl)cc3F)cc2)cc1 [Example 65, N-{4-[3-(4-Chloro-2-fluoro-phenoxy)-3-methyl-but-1-yn-1-yl]-phenyl}-2-(4-ethanesulfonyl-phenyl)-acetamide] | < 50 | 83.9 | 88.2 |
| CCn1c(C(C)(C)Oc2ccc(NC(=O)Cc3ccc(S(=O)(=O)CC)cc3)cc2F)nc2cc(F)ccc21 [Example 111, 2-(4-Ethanesulfonyl-phenyl)-N-{4-[1-(1-ethyl-5-fluoro-1H-benzoimidazol-2-yl)-1-methyl-ethoxy]-3-fluoro-phenyl}-acetamide] | < 50 | 88 | 86.8 |
| CCS(=O)(=O)c1ccc(CC(=O)Nc2ccc(C#CC(C)(C)Oc3ccc(F)cc3F)cc2)cc1 [Example 69, N-{4-[3-(2,4-Difluoro-phenoxy)-3-methyl-but-1-yn-1-yl]-phenyl}-2-(4-ethanesulfonyl-phenyl)-acetamide] | 50 to 100 | 71.6 | 81.8 |
| CCn1c(C(C)(C)Oc2ccc(Cl)cn2)nc2cc(NC(=O)Cc3ccc(S(=O)(=O)CC)cc3)ccc21 [Example 94, N-{2-[1-(5-Chloro-pyridin-2-yloxy)-1-methyl-ethyl]-1-ethyl-1H-benzoimidazol-5-yl}-2-(4-ethanesulfonyl-phenyl)-acetamide] | > 100 | 78 | 90.1 |
| CCS(=O)(=O)c1ccc(CC(=O)Nc2ccc(OC3(c4ccc(F)cc4F)CCC3)c(F)c2)cc1 [Example 141, N-(4-(1-(2,4-Difluorophenyl)cyclobutoxy)-3-fluorophenyl)-2-(4-(ethylsulfonyl)phenyl)acetamide] | < 50 | 81.4 | 75.2 |
| CCS(=O)(=O)c1ccc(CC(=O)Nc2ccc(OC3(c4ccc(Cl)cc4Cl)CCOCC3)cc2)cc1 [Example 40, N-{4-[4-(2,4-Dichloro-phenyl)-tetrahydro-pyran-4-yloxy]-phenyl}-2-(4-ethanesulfonyl-phenyl)-acetamide] | < 50 | 77.4 | 81.9 |
| CCn1c(C(C)(C)Oc2ccc(Cl)cc2Cl)nc2cc(NC(=O)Cc3ccc(S(=O)(=O)CC)cc3)ccc21 [Example 144, N-(2-(2-(2,4-Dichlorophenoxy)propan-2-yl)-1-ethyl-1H-benzo[d]imidazol-5-yl)-2-(4-(ethylsulfonyl)phenyl)acetamide] | < 50 | 90.6 | 92.5 |
| CCS(=O)(=O)c1ccc(CC(=O)Nc2ccc(OC(C)(C)c3ccc(F)cc3F)cc2)cc1 [Example 2, N-(4-{[2-(2,4-Difluorophenyl)propan-2-yl]oxy}phenyl)-2-[4-(ethylsulfonyl)phenyl]acetamide] |  | 66.9 | 78 |

Reference: patent US9718817B2, “Aryl and heteroaryl ether compounds as ROR gamma modulators” (Glenmark Pharmaceuticals S.A., priority 2014, dated 2017)
